Data taken from PMC12030059, “Mechanistic Advances in the Therapeutic Application of Bixin for Lung Inflammation In Vitro and In Vivo” (Pharmaceuticals, 2025).
In brackets after ≈: the same amount, converted by molar mass.

How the values were obtained:
[1] = tested on: F-actin in RAW 264.7 cells; assay: F-actin polymerization assay; assay type: cell-based; conditions: 200 μM, alone and in the presence of 5% CSE
Procedure: RAW 264.7 cells were seeded in a 24-well plate (2.5 × 10^5 cells/well) and stimulated as previously described. After reaching 70% confluence, cells were blocked with 5% (w/v) BSA for 1 h and washed three times in PBS-Tween 20 (0.1% (v/v)). The supernatants were replaced with ActinRed (ThermoFisher Scientific, Waltham, MA, USA) for 30 min, followed by washing and incubation with DAPI for 5 min. After the final wash, DMEM FluoroBrite was added, and fluorescence was analyzed using the EVOS inverted microscope (ThermoFisher Scientific, Waltham, MA, USA).

[2] = tested on: C57BL/6 mice challenged with intranasal LPS; assay: Intranasal LPS lung inflammation in mice, BAL cytokine ELISA; assay type: in vivo; conditions: 200 mg/kg gavage, 5 days
Procedure: Eight-week-old male C57BL/6 mice were obtained from the Multidisciplinary Center for Biological Research in Laboratory Animal Science (CEMIB/UNICAMP, Campinas, Brazil). The mice were provided with Purina chow ad libitum (Nuvilab, Curitiba, Brazil) and had unrestricted access to water in a controlled environment maintained at 22 ± 2 °C, 50–70% relative humidity, and a 12 h light/dark cycle (EB-273B, Insight Equipamentos Ltd., São Paulo, Brazil). They were acclimatized for two weeks before the experimental procedures. All experimental protocols were approved by the local Animal Ethics Committee (096/19).
To evaluate the pharmacological effects of potassium bixinate, the animals were divided into four groups (n = 5–7): (1) Control, (2) KBx, (3) LPS, and (4) LPS + KBx. For five consecutive days, animals in groups 2 and 4 were treated by oral gavage with 200 mg/kg of potassium bixinate diluted in PBS in a final volume of 100 μL, while animals in groups 1 and 3 were treated with 100 μL of PBS. On the sixth day, animals in groups 3 and 4 were challenged intranasally with 60 μg of LPS (extracted from Escherichia coli O55:B5) diluted in PBS (10 μL), while animals in groups 1 and 2 received 10 μL of PBS intranasally. Sixteen hours after LPS/PBS instillation, the animals were euthanized by cervical dislocation under isoflurane sedation.
Immediately following euthanasia, BAL was collected using an intratracheal cannula. The lavage was performed with 1.5 mL of saline solution (3 × 0.5 mL). The collected lavage fluid was centrifuged at 600× g for 10 min, and the supernatant was stored at −80 °C for subsequent enzyme-linked immunosorbent assay (ELISA) analysis.
Cytokine levels (IL-10 and KC; #900-K53K and #900-K127K) were quantified in BAL samples using an ELISA kit, following the manufacturer’s instructions (PeproTech, Neuilly Sur-Seine, France). A sample volume of 25 μL was used without dilution. The enzymatic reaction was initiated with peroxidase and a specific substrate, and the reaction was stopped before measuring absorbance at 450 nm and 570 nm using a Varioskan LUX spectrometer (ThermoFisher Scientific, Waltham, MA, USA). A calibration curve was generated using standard concentrations of the target protein, with the method showing linearity across a range of 2000–0 pg/mL.

[3] = Rat plasma stability; assay type: in vitro ADME; conditions: over 4 h, 50 μM, 37 °C
Procedure: Two- to three-month-old healthy male Wistar rats (with an average weight of 385 g) were obtained from the Graduation Program in Pharmacology and Medicinal Chemistry Bioterium (CCS/UFRJ) (Rio de Janeiro, Brazil). The rats were fed ad libitum with Purina chow (Nuvilab, Curitiba, Brazil) and had unrestricted access to water. They were housed in a controlled environment maintained at 22 ± 2 °C, 50–70% relative humidity and a 12 h light/dark cycle. The local Animal Ethics Committee approved all experimental procedures (046/21).
A 10 mM stock solution of bixin was prepared in DMSO. Rat blood was collected with heparin and centrifuged. The plasma fraction was separated and diluted to 80% in PBS at pH 7.4. Then, 50 μL of the 80% rat plasma solution was added to a final volume of 250 μL of a KPE at pH 7.4 containing 50 μM of bixin. The bixin was incubated with rat plasma under these conditions for 0, 30, 60, 120, and 240 min with shaking in a water bath at 37 °C. […] The supernatant was collected, filtered through a 0.22 μm filter into a vial, and then analyzed by HPLC using an LC-20AD Shimadzu (Kyoto, Japan) system equipped with a 100-5C18 Kromasil (Bohus, Sweden) analytical column (4.6 mm × 250 mm, 5 μm) and an SPD M20A diode array detector Shimadzu (Kyoto, Japan) set to wavelengths of 271 nm and 457 nm. […]

[4] = Kinetic solubility assay; assay type: physicochemical; conditions: aqueous buffer, kinetic from dmso stock, 37 °C
Procedure: These solutions were incubated in a shaking water bath at 37 °C for 4 and 24 h. Immediately after each incubation period, the samples were centrifuged at 21,000× g Universal Centrifuge 320R Hettich (Tuttlingen, Germany) at 22 °C. The supernatant was collected, filtered through a 0.44 μm Millipore filter (Sigma-Aldrich—Saint Louis, MO, USA) into a vial, and analyzed using a HPLC LC-20AD Shimadzu (Kyoto, Japan) coupled with a DAD detector set at 457 nm. The mobile phase consisted of acetonitrile and methanol (85:15 v/v) using a 100-5C18 Kromasil (Bohus, Sweden) analytical column (4.6 mm × 250 mm, 5 μm) as the stationary phase in isocratic mode at 22 °C with a flow rate of 1 mL/min. A calibration curve was prepared using bixin in acetonitrile at concentrations ranging from 0 to 200 μM and analyzed under the same HPLC conditions. LogS was calculated as the base-10 logarithm of the solubility (in μM) for each time point.

Compound	F-actin labeling (MFI) [1]	IL-10 levels in BAL, KBx alone ([2]; no LPS)	KC levels in BAL, KBx alone vs control ([2]; no LPS)	IL-10 levels in BAL, LPS + KBx ([2]; then LPS 60 μg i.n., 16 h)	KC levels in BAL, LPS + KBx vs LPS ([2]; then LPS 60 μg i.n., 16 h)	initial concentration retained in plasma [3] [%]	solubility at 4 h ([4]; PBS buffer, pH 7.4, 4 h) [µM]	solubility at 24 h ([4]; PBS buffer, pH 7.4, 24 h) [µM]	solubility at 4 h ([4]; buffered solution pH 2.0 (commercial), pH 2.0, 4 h) [µM]	solubility at 24 h ([4]; buffered solution pH 2.0 (commercial), pH 2.0, 24 h) [µM]	solubility at 4 h ([4]; potassium-phosphate-buffered saline solution (KPE) buffer, pH 6.6, 4 h) [µM]	solubility at 24 h ([4]; potassium-phosphate-buffered saline solution (KPE) buffer, pH 6.6, 24 h) [µM]
potassium bixinate [KBx]	maintained F-actin at control levels	comparable to the control	no significant effect on KC levels	can increase IL-10 production in the presence of LPS	significantly lower compared to the LPS group	–	–	–	–	–	–	–
COC(=O)/C=C/C(C)=C\C=C\C(C)=C\C=C\C=C(C)\C=C\C=C(C)\C=C\C(=O)O [HBx, (2E,4E,6E,8E,10E,12E,14E,16Z,18E)-20-methoxy-4,8,13,17-tetramethyl-20-oxoicosa-2,4,6,8,10,12,14,16,18-nonaenoic acid]	maintained F-actin at control levels	–	–	–	–	~100	64 (≈ 25.2 µg/mL)	43 (≈ 17 µg/mL)	< 1	< 1	30 (≈ 11.8 µg/mL)	11 (≈ 4.34 µg/mL)
